Format in all cases: biochemical
One experiment concerns the target mu opioid receptor (MOR) (Homo sapiens, UniProt P35372). The experiment in a line: GTP-γ-S Binding Assay (SPA-based), antagonist mode vs DAMGO. The settings on record: In vitro antagonism; agonist DAMGO 1 micromolar; Kb by Cheng-Prusoff equation. On the procedure: (§1) An SPA—based GTP-γ-S assay format was developed based on previous opioid (Emmerson et al., J. Pharm Exp Ther 278, 1121, 1996; Horng et al., Society for Neuroscience Abstracts, 434.6, 2000) and muscarinic (DeLapp et al., JPET 289, 946, 1999) assay formats. Membranes were re-suspended in 20 mM HEPES, 100 mM NaCl, 5 mM MgCl2, 1 mM DTT, and 1 mM EDTA. Fifty (50) […] of GTP-γ-[35S], compound, membrane suspension (20 microgram/well), and wheat germ agglutinin coated SPA beads (1 mg/well) were added to clear bottom 96 well assay plates. GDP ([…]) was added to the membrane solution prior to addition to the assay plates. Plates were sealed and incubated for four hours at room temperature then placed in a refrigerator overnight to allow the beads to settle. Signal stability at 4° C. was determined to be >60 hours. Plates were warmed to room temperature and counted in a Wallac Microbeta scintillation counter. For antagonist assays, specific agonists were added at the following concentrations: (MOR) DAMGO 1 micromolar, (DOR) DPDPE 30 nM, (KOR) U69593 300 nM. Kb's were determined by Cheng-Prusoff equation (see Cheng and Prusoff, Biochem. Pharmacol. 22, 3099, 1973).

Experiment [1] addresses kappa opioid receptor (KOR) (Homo sapiens, UniProt P41145). The experiment is described as follows: GTP-γ-S Binding Assay (SPA-based), antagonist mode vs U69593. The settings on record: In vitro antagonism; agonist U69593 300 nM; Kb by Cheng-Prusoff equation. On the procedure: as §1
In experiment [2] the target is delta opioid receptor (DOR) (Homo sapiens, UniProt P41143). The experiment in a line: GTP-γ-S Binding Assay (SPA-based), antagonist mode vs DPDPE. The note with it: In vitro antagonism; agonist DPDPE 30 nM; Kb by Cheng-Prusoff equation. On the procedure: as §1
Chain of delta opioid receptor (DOR) (P41143 whole entry): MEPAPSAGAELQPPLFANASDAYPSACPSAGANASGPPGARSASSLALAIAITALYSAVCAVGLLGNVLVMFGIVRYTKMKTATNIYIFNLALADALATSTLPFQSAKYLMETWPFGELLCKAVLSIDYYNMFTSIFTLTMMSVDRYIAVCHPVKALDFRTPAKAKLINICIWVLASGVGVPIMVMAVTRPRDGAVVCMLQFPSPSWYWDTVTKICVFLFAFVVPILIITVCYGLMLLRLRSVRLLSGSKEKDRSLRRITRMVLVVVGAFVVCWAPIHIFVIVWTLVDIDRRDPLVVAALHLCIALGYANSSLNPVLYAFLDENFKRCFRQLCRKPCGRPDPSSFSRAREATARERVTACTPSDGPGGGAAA

Chain of mu opioid receptor (MOR) (P35372 whole entry): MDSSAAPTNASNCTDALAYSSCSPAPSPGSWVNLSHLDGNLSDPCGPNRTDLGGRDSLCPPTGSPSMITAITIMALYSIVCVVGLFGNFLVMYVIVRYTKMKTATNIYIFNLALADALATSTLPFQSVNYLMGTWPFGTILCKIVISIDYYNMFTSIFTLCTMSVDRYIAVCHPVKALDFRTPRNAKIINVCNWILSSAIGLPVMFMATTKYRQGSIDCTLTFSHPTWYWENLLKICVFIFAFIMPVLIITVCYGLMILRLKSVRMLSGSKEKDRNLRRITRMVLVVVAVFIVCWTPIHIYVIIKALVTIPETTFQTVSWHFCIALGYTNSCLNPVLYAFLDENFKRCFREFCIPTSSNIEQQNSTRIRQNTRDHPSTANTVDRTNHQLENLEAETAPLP
Chain of kappa opioid receptor (KOR) (P41145 whole entry): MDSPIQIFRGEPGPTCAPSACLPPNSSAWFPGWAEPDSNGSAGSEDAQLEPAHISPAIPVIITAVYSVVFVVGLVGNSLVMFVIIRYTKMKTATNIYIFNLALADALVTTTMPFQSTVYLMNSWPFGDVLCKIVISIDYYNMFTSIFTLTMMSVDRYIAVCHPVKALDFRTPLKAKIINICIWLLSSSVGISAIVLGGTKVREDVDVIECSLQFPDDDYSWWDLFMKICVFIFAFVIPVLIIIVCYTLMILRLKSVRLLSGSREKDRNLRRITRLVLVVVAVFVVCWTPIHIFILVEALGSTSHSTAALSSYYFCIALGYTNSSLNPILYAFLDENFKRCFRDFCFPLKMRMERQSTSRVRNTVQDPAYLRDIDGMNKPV

One may read the Kb as the equilibrium dissociation constant of an antagonist, usually derived from a functional assay. A low value points to a more potent antagonist. On to `NC(=O)c1ccc(OC2CCN(CC3CC3)CC2)nc1` [Example 7, 6-(1-Cyclopropylmethyl-piperidin-4-yloxy)-nicotinamide], for which the Kb is 1.78 µM on mu opioid receptor (MOR), 1.05 µM in experiment [1] and over 7.3 µM in experiment [2].

For the compound `NC(=O)c1ccc(OC2CCN(Cc3cc4ccccc4[nH]3)CC2)nc1` [Example 8, 6-[1-(1H-Indol-2-ylmethyl)-piperidin-4-yloxy]-nicotinamide], the antagonist dissociation constant (Kb) at mu opioid receptor (MOR) is over 1.85 µM; in experiment [1], 0.937 µM; in experiment [2], over 7.3 µM.

Consider `NC(=O)c1ccc(OC2CCN(Cc3ccccc3)CC2)cc1` [Example 9, 4-(1-Benzyl-piperidin-4-yloxy)-benzamide], for which the Kb was 1.12 µM on mu opioid receptor (MOR), 0.93 µM in experiment [1] and over 7.3 µM in experiment [2].

As to `NC(=O)c1ccc(OC2CCC(NCCC3CCOCC3)CC2)nc1` (racemic) [Example 1, ±6-{4-[2-(Tetrahydro-pyran-4-yl)-ethylamino]-cyclohexyloxy}-nicotinamide], the Kb amounted to 0.566 µM on mu opioid receptor (MOR), 0.601 µM in experiment [1] and 0.819 µM in experiment [2].

As to `CC(C)CCNC1CCC(Oc2ccc(C(N)=O)cn2)CC1` (racemic) [Example 2, ±6-[4-(3-Methyl-butylamino)-cyclohexyloxy]-nicotinamide], the Kb at mu opioid receptor (MOR) came out at 0.594 µM; in experiment [1] it was 0.62 µM; in experiment [2] it was 0.996 µM.

In the case of `NC(=O)c1ccc(OC2CCN(CCCc3ccccc3)CC2)cc1` [Example 10, 4-[1-(3-Phenyl-propyl)-piperidin-4-yloxy]-benzamide], the antagonist equilibrium constant (Kb) at mu opioid receptor (MOR) was determined as 0.453 µM; in experiment [1], 0.999 µM; in experiment [2] it was 1.96 µM.

For `NC(=O)c1ccc(OC2CCN(Cc3ccccn3)CC2)nc1` [Example 6, 6-(1-Pyridin-2-ylmethyl-piperidin-4-yloxy)-nicotinamide], the Kb was over 1.8 µM at mu opioid receptor (MOR), 0.43 µM in experiment [1] and over 7.3 µM in experiment [2].

Source of the values: patent publication US7196100B2, “Opioid receptor antagonists” (Eli Lilly and Company, priority 2004, dated 2007).
